Reference: patent US20260193245A1, “CD93 INHIBITORS” (UNIVERSITÄT BERN, priority 2022, published 2026)

What was measured:
CD93 = molecular target: T1, CD93 (Mus musculus, UniProt O89103); assay: Mouse MLL-AF9 compound screening: colony forming capacity of BL6 or CD93-/- GMPs (leukemia stem cells) from AML mice; type: cell-based; settings: GMPs from AML mice cultured overnight with 10 uM and 1 uM compound; colonies counted after 7 days; FIG. 1 and FIG. 2
T1 construct: endogenous in cells; host or cells: FACS-purified GFP+ lin- Sca-1- c-kit(high) CD34+ Fcγ+ GMPs from MLL-AF9 AML mice (BL6; CD93-/- cells as control)
T1 sequence (O89103 23-644): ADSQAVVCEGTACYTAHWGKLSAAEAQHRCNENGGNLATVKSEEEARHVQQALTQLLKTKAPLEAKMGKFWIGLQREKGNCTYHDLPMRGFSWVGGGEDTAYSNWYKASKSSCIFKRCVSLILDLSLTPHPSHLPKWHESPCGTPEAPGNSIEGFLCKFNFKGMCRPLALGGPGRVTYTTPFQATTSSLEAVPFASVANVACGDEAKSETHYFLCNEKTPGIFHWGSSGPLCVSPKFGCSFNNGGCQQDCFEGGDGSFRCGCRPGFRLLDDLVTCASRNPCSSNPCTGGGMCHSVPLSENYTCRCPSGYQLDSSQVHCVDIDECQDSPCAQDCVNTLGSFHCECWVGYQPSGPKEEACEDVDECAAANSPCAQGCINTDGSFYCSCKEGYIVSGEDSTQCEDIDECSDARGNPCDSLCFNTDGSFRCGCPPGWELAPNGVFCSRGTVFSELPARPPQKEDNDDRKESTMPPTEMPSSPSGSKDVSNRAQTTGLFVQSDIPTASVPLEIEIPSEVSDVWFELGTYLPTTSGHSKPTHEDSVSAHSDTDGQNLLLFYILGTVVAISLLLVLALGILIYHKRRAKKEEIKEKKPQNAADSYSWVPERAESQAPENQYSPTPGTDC
Experimental: The colony formation (% of control) is shown on the Y-axis. […] Compounds showing inhibition of CD93, show no or a very low difference in colony formation of CD93−/− and at the same time a low percentage of colony formation of BL6.
For testing the small molecule compounds targeting CD93 on GMPs (leukemia stem cells) colony forming capacity, 10^3 FACS-purified GFP+lin-Sca-1-c-kithighCD34+Fcγ+ GMPs from BL6 or CD93−/− transduced AML mice were cultured overnight in 96-well U-bottom plates (NeoLab) in RPMI medium supplemented with 10% FCS, 1% L-glutamine, 1% penicillin/streptomycin, 100 ng/ml recombinant mouse (rm)-SCF (Miltenyi) and 20 ng/ml rm-TPO (ProSpec), in the presence or absence of 10 uM and 1 uM compound in technical triplicates. Compounds were dissolved in DMSO. The next day, cells were plated in semi-solid methylcellulose in the absence of any compound. Number of colonies was assessed by inverted light microscopy after 7 days.
In this assay, the semi-solid Media used was 1.27% Methylcellulose (1500cp, Sigma), supplemented with 15% FCS, 20% BIT (50 mg/ml BSA in IMDM, 1.44 U/ml rh-insulin [Actrapid; Novo Nordisk], and 250 ng/ml human holo transferrin [Prospec]), 100 μM 2-mercaptoethanol, 100 U/ml penicillin, 100 μg/ml streptomycin, 2 mM L-glutamine, and 50 ng/ml rm-SCF (Miltneyi), 10 ng/ml rm-IL-3 (Miltenyi), 10 ng/ml rm-IL-6 (Miltenyi), and 50 ng/ml rm-Flt3-ligand (ProSpec).

[1] = system: human CML leukemia stem cells; settings: Riether et al. 2021; cited from earlier work
BL6 leukemia stem cells = settings: murine CML model, BL6 and CD93-/- mice; Riether et al. 2021; cited from earlier work

Row | SMILES | inhibition profile of CD93 (colony formation, % of control, BL6 vs CD93-/- GMPs) (CD93) | leukemia stem cell numbers and function [1] | colony formation of BL6 leukemia stem cells (BL6 leukemia stem cells)
1 | O=C(c1csc(-c2ccccc2)n1)N1CCCN(C2CC2)CC1 [Compound 21560] | good inhibition profiles of CD93 |  | 
2 | O=C(c1nc2ccccc2s1)N1CCCN(C2CC2)CC1 [Compound 22393] | good inhibition profiles of CD93 |  | 
3 | COc1ccccc1-c1nc(C(=O)N2CCCN(C3CC3)CC2)cs1 [Compound 22394] | good inhibition profiles of CD93 |  | 
4 | O=C(c1ccn(-c2ccccc2)n1)N1CCCN(C2CC2)CC1 [Compound 22742] | good inhibition profiles of CD93 |  | 
5 | CN(C)CCN(C)C(=O)c1csc(-c2ccccc2)n1 [Compound 22815] | good inhibition profiles of CD93 |  | 
6 | O=C(c1csc(-c2ccccc2)n1)N1CCN2CCC1C2 (centres unmarked) [Compound 22817] | good inhibition profiles of CD93 |  | 
7 | CCN(CC)CCNC(=O)c1cc(Cl)c(N)cc1OC [metoclopramide] |  | diminished leukemia stem cell numbers and function | reduced colony formation of BL6 leukemia stem cells
